# Assay results reported in ChEMBL document CHEMBL1127044, “Preparation and pharmacological evaluation of enantiomers of certain nonoxygenated aporphines: (+)- and (-)-aporphine and (+)- and (-)-10-methylaporphine” (1993).
# Organism: Cavia porcellus
# Assay: Tested for inhibition of field-stimulation-induced contraction in the isolated guinea pig ileum
# Format: functional
# Conditions: read-out: ID50 (the source's name)
row,SMILES,IC50
1,Cc1ccc2c(c1)-c1cccc3c1[C@@H](C2)N(C)CC3,6800 nM
2,Cc1ccc2c(c1)-c1cccc3c1[C@H](C2)N(C)CC3,1200 nM
3,CCCN(CCC)C1CCc2cccc(O)c2C1 (racemic) [8-OH-DPAT],60 nM
